Experimental data taken from patent publication US20220192956A1, “SUPERIOR EFFICACY OF AZOXYSTROBIN AND OTHER STROBILURINS” (The Procter & Gamble Company, priority 2020, published 2022).
≈ marks a conversion by molar mass, not a printed value.

Experiments:
[1] = system: Candida albicans (ATCC 10231); assay: In vitro antifungal potency (MIC), growth read by absorbance at 600 nm; format: cell-based; settings: Sabouraud Broth, 31° C., evaluated at concentrations up to 250 ppm; for MIC: Candida albicans, ATCC10231, read-out: MIC (ppm) against Candida albicans
Method: Candida albicans (ATCC 10231) is grown overnight in Sabouraud Broth (SDB). 190 μl of SDB is added per well of a Corning 3596 polystyrene plate followed by 5 μl of test material as two-fold dilutions in DMSO and 5 μl C. albicans. The cells are incubated at 31° C., without shaking, and wrapped in wet cotton batting. The plates are shaken for 30 seconds at 950 rpm on a MixMate shaker. The absorbance at 600 nm is read on a Spectramax plate reader.
(§1) All compounds are sourced from Sigma Aldrich (St. Louis, Mo.) and prepared as 10 mg/ml in DMSO. A semipermeable aeraseal membrane is applied to the plate which is then covered with water-soaked cotton batting. The samples are shaken at 31° C. on a Heidolph Titramax 100 shaker at 1500 rpm for approximately 72 hours. The plates are shaken at 1250 rpm on an Eppendorf MixMate shaker to disperse the cells before 200 μl of cells is transferred to a Corning 3596 polystyrene plate. The samples are shaken again at 950 rpm on a MixMate shaker before the absorbance at 600 nm is read using a Molecular Devices SpectraMax plate reader.

[2] = system: Aspergillus brasiliensis (ATCC 16404); assay: In vitro antifungal potency (MIC), growth graded visually; format: cell-based; settings: spores in SDB, 25° C., approximately 96 h; for MIC: Aspergillus brasiliensis, ATCC16404, read-out: MIC (ppm) against Aspergillus brasiliensis
Method: Aspergillus brasiliensis (ATCC 16404): Aspergillus spores are prepared by inoculating a Sabouraud agar plate and incubating at 25° C. for 6-10 days, after which, 10 mL of Saline+Tween-80 is added to dislodge the spores. The suspension is then filtered through 2 layers of sterile gauze. The spores are diluted two-fold in SDB. 190 μl of SDB is added to a Corning 3596 polystyrene plate followed by 5 μl of test compound per well and 5 μl of the diluted spores. The plates are incubated at 25° C. for approximately 96 h at high humidity. Growth is graded visually as either growth or no growth.
as §1

[3] = system: Malassezia sympodialis (ATCC 42132); assay: In vitro antifungal potency (MIC), growth read by absorbance at 600 nm; format: cell-based; settings: mDixon medium, 31° C., approximately 72 hours; for MIC: Malassezia sympodialis, ATCC42132, read-out: MIC (ppm) against Malassezia sympodialis
Method: (§2) Malassezia furfur (CBS 7982), Malassezia sympodialis (ATCC 42132), and Malassezia pachydermatis (CBS 1879) is grown for approximately 24 hours in a 250 ml vent cap polycarbonate Erlenmeyer flask containing approximately 100 ml of mDixon medium and 5 ml of a fully grown Malassezia culture is prepared using the same conditions as described. The cells are diluted by mixing 2.5 ml of the 24 hour-old culture per 50 ml of mDixon medium. A Versette robot (ThermoFisher Scientific) is used to transfer 292.5 μl of the dilute cells into each well of a Beckman 267007 polypropylene round bottom deep well plate.
as §1

[4] = system: Malassezia furfur (CBS 7982); assay: as above; format: cell-based; settings: for MIC (ppm) against Malassezia furfur / MIC: mDixon medium, 31° C., approximately 72 hours; for MIC: CBS7982, read-out: MIC (ppm) against Malassezia furfur
Method: as §2, §1

[5] = system: Malassezia pachydermatis (CBS 1879); assay: as above; format: cell-based; settings: mDixon medium, 31° C., approximately 72 hours; for MIC: Malassezia pachydermatis, CBS1879, read-out: MIC (ppm) against Malassezia pachydermatis
Method: as §2, §1

[6] = cited from earlier work
[7] = system: Malassezia yeasts; assay: In vitro antifungal potency (MIC), statements across the Malassezia species tested; format: cell-based
Method: as §2, §1

| SMILES | MIC (ppm) against Candida albicans [1] [ppm] | MIC (ppm) against Aspergillus brasiliensis [2] [ppm] | MIC (ppm) against Malassezia sympodialis [3] [ppm] | MIC (ppm) against Malassezia furfur [4] [ppm] | times less potent than azoxystrobin (MIC against Malassezia furfur) ([4]; ratio of MICs, Malassezia furfur) [times] | MIC (ppm) against Malassezia pachydermatis [5] [ppm] | MIC [1] [µg/mL] | MIC [2] [µg/mL] | MIC [3] [µg/mL] | MIC ([4]; Malassezia furfur) [µg/mL] | MIC [5] [µg/mL] | solubility in water [6] | MIC against Malassezia yeasts (all species tested) ([7]; M. furfur, M. sympodialis, M. pachydermatis) | times more potent than pyraclostrobin (MIC against Malassezia, in all cases) ([7]; ratio of MICs, all three Malassezia species) [times] |
| --- | --- | --- | --- | --- | --- | --- | --- | --- | --- | --- | --- | --- | --- | --- |
| CNC(=O)/C(=N/OC)c1ccccc1CO/N=C(C)/C(=N/OC)C(/C)=N/OC [Orysastrobin, orysastrobin] | >250 | 31.25 | 7.81 | 31.25 | 64 | 125 | – | – | – | – | – | – | – | – |
| CON=C(C(=O)OC)c1ccccc1CON=C(C)c1cccc(C(F)(F)F)c1 [Trifloxystrobin, trifloxystrobin] | – | – | – | – | – | – | > 250 | 31.2 (≈ 76.5 µM) | 1.95 (≈ 4.78 µM) | 15.6 (≈ 38.3 µM) | 31.2 (≈ 76.5 µM) | – | – | – |
| CO/N=C(/C1=NOCCO1)c1ccccc1Oc1ncnc(Oc2ccccc2Cl)c1F [Fluoxastrobin, fluoxastrobin] | – | – | – | – | – | – | > 250 | 0.49 (≈ 1.07 µM) | 1.95 (≈ 4.25 µM) | 3.91 (≈ 8.52 µM) | 7.81 (≈ 17 µM) | – | – | – |
| COC(=O)N(OC)c1ccccc1COc1ccn(-c2ccc(Cl)cc2)n1 [Pyraclostrobin, pyraclostrobin] | – | – | – | – | – | – | > 250 | 0.02 (≈ 0.0516 µM) | 0.49 (≈ 1.26 µM) | 1.95 (≈ 5.03 µM) | 3.91 (≈ 10.1 µM) | – | – | – |
| CO/C=C(/C(=O)OC)c1ccccc1Oc1cc(Oc2ccccc2C#N)ncn1 [Azoxystrobin] | >250 | 0.24 | 0.12 | 0.49 | – | 0.98 | – | – | – | – | – | low | less than 1.0 ppm | 4 |
| CNC(=O)/C(=N/OC)c1ccccc1COc1cc(C)ccc1C [Dimoxystrobin, dimoxystrobin] | >250 | 0.24 | 1.95 | 7.81 | – | 31.25 | – | – | – | – | – | – | – | – |
| CO/N=C(/C(=O)OC)c1ccccc1COc1ccccc1C [Kresoxim-methyl, kresoxim methyl] | – | – | – | – | – | – | > 250 | 0.98 (≈ 3.13 µM) | 3.91 (≈ 12.5 µM) | 15.6 (≈ 49.9 µM) | 31.2 (≈ 99.7 µM) | – | – | – |
